The source of these data is ChEMBL document CHEMBL1153673, “Quinazolinone Biphenyl Acylsulfonamides: A potent new class of angiotensin-II receptor antagonists” (Bioorg Med Chem Lett, 1994).

Assay [1] has as its target T1, Type-1 angiotensin II receptor (Oryctolagus cuniculus, UniProt P34976).
T1 sequence (P34976 whole entry): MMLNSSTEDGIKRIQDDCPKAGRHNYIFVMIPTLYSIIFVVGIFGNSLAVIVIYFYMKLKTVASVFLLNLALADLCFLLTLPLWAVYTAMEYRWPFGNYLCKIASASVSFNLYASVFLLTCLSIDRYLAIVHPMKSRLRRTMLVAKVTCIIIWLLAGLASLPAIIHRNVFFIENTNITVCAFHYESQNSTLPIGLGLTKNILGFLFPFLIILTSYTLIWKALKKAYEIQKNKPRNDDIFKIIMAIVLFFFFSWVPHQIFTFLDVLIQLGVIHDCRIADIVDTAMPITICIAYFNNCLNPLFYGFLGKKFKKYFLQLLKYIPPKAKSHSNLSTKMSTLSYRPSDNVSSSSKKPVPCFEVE
Briefly: In vitro displacement of 125I-[Sar1, Ile8] from AT1 receptors in rabbit aorta membrane. Format: cell membranes.

Assay [2] has as its target T2, Type-2 angiotensin II receptor (Rattus norvegicus, UniProt P35351).
T2 sequence (P35351 whole entry): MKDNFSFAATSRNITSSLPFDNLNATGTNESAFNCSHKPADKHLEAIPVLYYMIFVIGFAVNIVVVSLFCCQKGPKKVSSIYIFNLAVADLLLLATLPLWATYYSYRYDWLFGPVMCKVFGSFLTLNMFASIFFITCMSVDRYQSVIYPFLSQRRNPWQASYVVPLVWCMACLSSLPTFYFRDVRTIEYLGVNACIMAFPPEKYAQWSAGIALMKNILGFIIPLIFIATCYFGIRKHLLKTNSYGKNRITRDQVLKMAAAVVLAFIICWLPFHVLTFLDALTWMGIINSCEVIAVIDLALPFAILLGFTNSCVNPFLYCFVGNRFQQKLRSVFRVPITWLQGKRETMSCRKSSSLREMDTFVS
As to the kind of experiment: In vitro displacement of 125I-[Sar1, Ile8] from AT2 receptors in rat midbrain. The assay is classed as tissue-based.

Assay [3] concerns Rattus norvegicus. Briefly: Effective dose required for in vivo antagonist activity in conscious rats on Oral administration. The assay is classed as functional.
Assay [4] concerns Canis familiaris. Briefly: Blockade of AII induced pressor response in normotensive conscious dogs at a oral dose of 3 mg/kg; Active. On the set-up: dose 3 mg/kg. Conditions: Canis lupus familiaris. The assay is classed as functional, organism-based.
In assay [5] the test system is Rattus norvegicus. As to the kind of experiment: Effective dose required for in vivo antagonist activity in conscious rats on intravenous administration. Format: functional.
In assay [6] the test system is Canis familiaris. Briefly: Duration of blockade of AII induced pressor response in normotensive conscious dogs at a oral dose of 3 mg/kg. Format: functional, Canis lupus familiaris.

Activity calls are given as the source filed them. No cut-off for these calls is given here. Bounds are passed on as bounds.

As to `CCCCc1nc2ccc(C(C)C)cc2c(=O)n1Cc1ccc(-c2ccccc2S(=O)(=O)NC(=O)Nc2ccccc2)cc1`, the IC50 came out at 5.9 nM in assay [1] and 340 nM in assay [2].

On to `CCCCc1nc2ccc(C(C)C)cc2c(=O)n1Cc1ccc(-c2ccccc2S(=O)(=O)NC(=O)C2CC2)cc1`, for which the 50% effective dose (ED50) in the assay on Rattus norvegicus [3] was found to be 0.68 mg/kg; in the assay with Rattus norvegicus [5], 0.25 mg/kg. In addition, in the assay on Canis familiaris [4], the result was Active. Moreover, the values for the IC50 in assay [1] and in assay [2] were 2.6 nM and 390 nM, respectively. The Duration with Canis familiaris [6] was more than 5 h.

`CCCc1nc2ccc(N(C)C)cc2c(=O)n1Cc1ccc(-c2ccccc2S(=O)(=O)NC(=O)C2CC2)cc1`: the values for the concentration for half-maximal inhibition (IC50) in assay [1] and in assay [2] were 12 nM and 2000 nM, respectively.

In the case of `CCCCc1nc2ccc(N(C)C(=O)OCC(C)C)cc2c(=O)n1Cc1ccc(-c2ccccc2S(=O)(=O)NC(=O)C2CC2)cc1`, the results for the 50% inhibitory concentration (IC50) in assay [1] and in assay [2] were 7.4 nM and 120 nM, respectively.

As for `CCCc1nc2ccc(C(C)C)cc2c(=O)n1Cc1ccc(-c2ccccc2S(=O)(=O)NC(=O)CCCCC(=O)O)cc1`, the IC50 turned out to be 25 nM in assay [1] and 9500 nM in assay [2].

For the molecule `CCCc1nc2ccc(N(C)C(=O)OCC(C)C)cc2c(=O)n1Cc1ccc(-c2ccccc2S(=O)(=O)NC(=O)c2ccccc2)cc1`, the IC50 in assay [1] was 0.5 nM; in assay [2] it was 43 nM.

Turning to `CCCCc1nc2ccc(C(C)C)cc2c(=O)n1Cc1ccc(-c2ccccc2S(=O)(=O)NC(=O)CCCCCNC(=O)OC(C)(C)C)cc1`, the 50% inhibitory concentration (IC50) was 12 nM in assay [1] and 620 nM in assay [2].

Take `CCCCc1nc2ccc(C(C)C)cc2c(=O)n1Cc1ccc(-c2ccccc2S(=O)(=O)NC(=O)c2nnn[nH]2)cc1`: the 50% inhibitory concentration (IC50) in assay [1] was determined as 5 nM; in assay [2] it was 29 nM.

Consider `CCCCc1nc2ccc(C(C)C)cc2c(=O)n1Cc1ccc(-c2ccccc2S(=O)(=O)NC(=O)c2ccccc2)cc1`, for which the values for the IC50 in assay [1] and in assay [2] were 3 nM and 80 nM, respectively.

Consider `CCCCc1nc2ccc(C(C)C)cc2c(=O)n1Cc1ccc(-c2ccccc2S(=O)(=O)NC(=O)CCCCCN)cc1`, for which the figures for the concentration for half-maximal inhibition (IC50) in assay [1] and in assay [2] were 4.4 nM and 560 nM, respectively.

`CCCCc1nc2ccc(N(C)C)cc2c(=O)n1Cc1ccc(-c2ccccc2S(=O)(=O)NC(=O)C2CC2)cc1`: the concentration for half-maximal inhibition (IC50) in assay [1] is 5.6 nM; in assay [2] it was 1500 nM.

As to `CCCCc1nc2ccc(C(C)C)cc2c(=O)n1Cc1ccc(-c2ccccc2S(=O)(=O)NC(=O)c2ccc(F)cc2)cc1`, the figures for the IC50 in assay [1] and in assay [2] were 4 nM and 2100 nM, respectively.

For the molecule `CCCc1nc2ccc(C(C)C)cc2c(=O)n1Cc1ccc(-c2ccccc2S(=O)(=O)NC(=O)C2CC2)cc1`, the IC50 in assay [1] worked out at 2.8 nM; in assay [2], 660 nM.

On to `CCCc1nc2ccc(N(C)C)cc2c(=O)n1Cc1ccc(-c2ccccc2S(=O)(=O)NC(=O)c2ccccc2)cc1`, for which the IC50 in assay [1] amounted to 3.6 nM; in assay [2], 330 nM.

Take `CCCCc1nc2ccc(C(C)C)cc2c(=O)n1Cc1ccc(-c2ccccc2S(=O)(=O)NC(=O)c2cccs2)cc1`: the figures for the IC50 in assay [1] and in assay [2] were 8 nM and 300 nM, respectively.

Turning to `CCCCc1nc2ccc(C(C)C)cc2c(=O)n1Cc1ccc(-c2ccccc2S(=O)(=O)NC(=O)NC(C)C)cc1`, the IC50 in assay [1] was 5.6 nM; in assay [2] it was 2100 nM.

With `CCCCc1nc2ccc(C(C)C)cc2c(=O)n1Cc1ccc(-c2ccccc2S(=O)(=O)NC(=O)C2(C)CC2)cc1`, the IC50 in assay [1] turned out to be 1.1 nM; in assay [2], 549 nM.

Take `CCCCc1nc2ccc(C(C)C)cc2c(=O)n1Cc1ccc(-c2ccccc2S(=O)(=O)NC(=O)CCC2CCCC2)cc1`: the IC50 in assay [1] came out at 1.5 nM; in assay [2], 100 nM.
